US8465756B2, “Immunogenic peptides of tumor associated antigen L6 and uses thereof in cancer therapy” (National Health Research Institutes, priority 2009, dated 2013)

Tests used:
[1] = system: human HLA-A24 and β2-microglobulin; experiment: MHC-peptide complex formation assay (ELISA), HLA-A24; type: binding; settings: MHC-peptide formation rate versus positive control peptide
[2] = system: T cells (spleen cells from HLA-A24 transgenic mice); experiment: IFN-γ ELISpot on spleen cells of peptide-immunized HLA-A24 transgenic mice; type: in vivo, HLA-A24 transgenic mouse; settings: HLA-A24 transgenic mice immunized as in Example 2; FIG. 2
Text: FIG. 2 is a chart showing induction of interferon γ in spleen cells from HLA-A24 transgenic mice immunized with a number of immunogenic peptides from TAL6: peptides 17 (SEQ ID NO:14), 18 (SEQ ID NO:15), 20 (SEQ ID NO:16), 21 (SEQ ID NO:17), 22 (SEQ ID NO:18), 23 (SEQ ID NO:19), 24 (SEQ ID NO:20), 26 (SEQ ID NO:21), 27 (SEQ ID NO:22), 29 (SEQ ID NO:41), and 30 (SEQ ID NO:23). “N” refers to a negative control and “P” refers to a positive control.
(§1) One mg of each of the peptides (test peptides) that were identified as HLA-A2-restricted T-cell epitopes in Examples 1 above and 1 mg of PADRE peptide ([…]; SEQ ID NO:25), both in 0.5 ml PBS, were mixed together with 0.5 mL incomplete Freund's adjuvant (IFA). An EBV-derived HLA-A2-restricted epitope, i.e., […](GLC; SEQ ID NO:35), was used as a positive control and an EBV-derived HAL-A24-restricted epitope, i.e., TYGPVFMCL (TYG; SEQ ID NO:37), was used as negative control. 100 μl of the mixture (containing 50 μg of a test peptide) was injected s.c. into the tail base of a HLA-A2 transgenic mouse, once every 7 days for two times. Spleen cells were harvested from the treated mice 7 days after the second injection and cultured in the presence of 10 μg/mL of the test peptide. The supernatant of the cell culture was subjected to an ELISpot assy to examine the amount of IFN-γ contained therein, which correlates to the activity of the test peptide for stimulating T cells.
Each of the peptides (test peptides) that were identified as HLA-A24-restricted T-cell epitopes in Examples 3 above were used to immunize HAL-A24 transgenic mice, following the procedures described in Example 2 above. EBV peptides GLC and TYG were used as a negative control and a positive control, respectively.

[3] = system: tumor cells EL4/TAL6/HLA-A2; experiment: Tumor growth after peptide immunization and transplantation of EL4/TAL6/HLA-A2 tumor cells; type: in vivo, mice
Description: FIG. 4 is a chart showing inhibition of tumor growth in mice immunized by immunopeptides derived from TAL6. Tumor volume was calculated using the formula: tumor volume=length×width×width/2. Panel (a): HLA-A2 transgenic mice. Panel (b): Wild-type mice.
Peptide 2 or Peptide 5 listed in Table 1 above, mixed with IFA, was administered subcutaneously to HLA-A2 transgenic mice (50 μg/mouse) or wild-type C57BL/6 mice twice in two weeks. Twenty-one days later, each of the immunized mice was transplanted subcutaneously with 2×10^5 of tumor cells EL4/TAL6/HLA-A2 (EL4 cells stably expressing both TAL6 and HLA-A2) to induce tumor growth in the immunized mice. Sizes of the tumors in the treated mice were monitored every 2-3 days. The tumor volume was calculated using the formula: tumor volume=length×width×width/2.

[4] = system: splenocytes from pEK/TAL6-immunized mice; experiment: IFN-γ ELISpot on splenocytes of pEK/TAL6 DNA immunized mice stimulated with TAL6 peptides; type: in vivo; settings: splenocytes from pEK/TAL6-immunized mice stimulated with the peptide; FIG. 3
[5] = system: T cells (spleen cells from HLA-A2 transgenic mice); experiment: IFN-γ ELISpot on spleen cells of peptide-immunized HLA-A2 transgenic mice; type: in vivo, HLA-A2 transgenic mouse; settings: 50 μg peptide with PADRE peptide and IFA s.c. twice; spleen cells cultured with 10 μg/mL test peptide; FIG. 1
Description: FIG. 1 is a chart showing induction of interferon γ in spleen cells from HLA-A2 transgenic mice immunized with a number of immunogenic peptides from TAL6: peptides 1 (SEQ ID NO:1), 2 (SEQ ID NO:2), 5 (SEQ ID NO:4), 6 (SEQ ID NO:5), 7 (SEQ ID NO:6), 8 (SEQ ID NO:7), 9 (SEQ ID NO:8), 11 (SEQ ID NO: 10), and 14 (SEQ ID NO:12). “NP” refers to absence of any peptide.
as §1

[6] = HLA-A2 transgenic mice, 50 μg/mouse peptide with IFA s.c. twice, FIG. 4 panel (a)

Relative binding (%) to HLA-A24 [1] [%] | Sequence | also measured
125.73 | CYGKCARCI (Synthetic HLA-A24 restricted CTL epitope (2-10 aa of TAL6)) [Peptide 17, TAL6 position 2-10] | –
22.24 | EWNVSLFSIL (Synthetic HLA-A24 restricted CTL epitope (157-166 aa of TAL6)) [Peptide 31, TAL6 position 157-166] | –
72.36 | FFSGIVGGGL (Synthetic HLA-A24 restricted CTL epitope (49-57 aa of TAL6)) [Peptide 23, TAL6 position 49-57] | –
25.29 | GGIEFILCL (Synthetic HLA-A24 restricted CTL epitope (170-178 aa of TAL6)) [Peptide 32, TAL6 position 170-178] | –
14.85 | GGIEFILCLI (Synthetic HLA-A24 restricted CTL epitope (170-179 aa of TAL6)) [Peptide 33, TAL6 position 170-179] | –
117.78 | GYCVIVAAL (Synthetic HLA-A24 restricted CTL epitope (105-113 aa of TAL6)) [Peptide 24, TAL6 position 105-113] | –
61.73 | HSLVGLALL (Synthetic HLA-A24 restricted CTL epitope (12-20 aa of TAL6)) [Peptide 18, TAL6 position 12-20] | –
0.00 | IAANILLYF (Synthetic HLA-A24 restricted CTL epitope (22-30 aa of TAL6)) [Peptide 19, TAL6 position 22-30] | –
64.59 | KYASENHLS (Synthetic HLA-A24 restricted CTL epitope (36-44 aa of TAL6)) [Peptide 21, TAL6 position 36-44] | –
– | LLMLLPAFV (Synthetic HLA-A2 restricted CTL epitope (58-66 aa of TAL6)) [Peptide 5, TAL6 position 58-66] | Inhibition of tumor growth (tumor volume) [3, 6]: significantly inhibited tumor growth; Inhibition of tumor growth (tumor volume) ([3]; wild-type C57BL/6 mice, peptide with IFA s.c. twice, FIG. 4 panel (b)): not in the wild-type mice; IFN-γ-secreting cells activated by test TAL6 peptide [4]: responsive; IFN-γ secretion of T cells [5]: induced IFN-γ secretion of T cells
84.95 | LYFPNGETKY (Synthetic HLA-A24 restricted CTL epitope (28-36 aa of TAL6)) [Peptide 20, TAL6 position 28-36] | –
91.88 | RFVWFFSGI (Synthetic HLA-A24 restricted CTL epitope (45-53 aa of TAL6)) [Peptide 22, TAL6 position 45-53] | –
– | SLVGLALLC (Synthetic HLA-A2 restricted CTL epitope (13-21 aa of TAL6)) [Peptide 2, TAL6 position 13-21] | Inhibition of tumor growth (tumor volume) [3, 6]: reduced tumor growth in the HLA-A2 transgenic mice, albeit in a lower level; IFN-γ-secreting cells activated by test TAL6 peptide [4]: responsive; IFN-γ secretion of T cells [5]: induced IFN-γ secretion of T cells
49.24 | TFASTEGQY (Synthetic HLA-A24 restricted CTL epitope (131-139 aa of TAL6)) [Peptide 25, TAL6 position 131-139] | –
115.71 | TFASTEGQYL (Synthetic HLA-A24 restricted CTL epitope (131-140 aa of TAL6)) [Peptide 26, TAL6 position 131-140] | –

Sequence | Relative binding (%) to HLA-A24 [1] [%] | also measured
EWNVSLFSI (Synthetic HLA-A24 restricted CTL epitope (157-165 aa of TAL6)) [Peptide 30, TAL6 position 157-165] | 74.01 | IFN-γ secretion of T cells [2]: induced IFN-γ secretion of T cells
HIVEWNVSLF (Synthetic HLA-A24 restricted CTL epitope (154-163 aa of TAL6)) [Peptide 28, TAL6 position 154-163] | 28.03 | –
IVEWNVSLF (Synthetic HLA-A24 restricted CTL epitope (155-163 aa of TAL6)) [Peptide 29, TAL6 position 155-163] | 41.01 | IFN-γ secretion of T cells [2]: induced IFN-γ secretion of T cells
QYLLDTSTW (Synthetic HLA-A24 restricted CTL epitope (138-147 aa of TAL6)) [Peptide 27, TAL6 position 138-147] | 110.75 | IFN-γ secretion of T cells [2]: induced IFN-γ secretion of T cells
